Assay results from BindingDB's records for doi:10.1021/jm980621r (Ligand Pharmaceuticals, 1999).

Experiments:
[1] = target: T1, Retinoic acid receptor RXR-beta (Homo sapiens, UniProt P28702); test: Transcriptional activity was evaluated in CV-1 cells transfected with expression vector for Retinoic acid receptor RXR-beta
T1 sequence (P28702 whole entry): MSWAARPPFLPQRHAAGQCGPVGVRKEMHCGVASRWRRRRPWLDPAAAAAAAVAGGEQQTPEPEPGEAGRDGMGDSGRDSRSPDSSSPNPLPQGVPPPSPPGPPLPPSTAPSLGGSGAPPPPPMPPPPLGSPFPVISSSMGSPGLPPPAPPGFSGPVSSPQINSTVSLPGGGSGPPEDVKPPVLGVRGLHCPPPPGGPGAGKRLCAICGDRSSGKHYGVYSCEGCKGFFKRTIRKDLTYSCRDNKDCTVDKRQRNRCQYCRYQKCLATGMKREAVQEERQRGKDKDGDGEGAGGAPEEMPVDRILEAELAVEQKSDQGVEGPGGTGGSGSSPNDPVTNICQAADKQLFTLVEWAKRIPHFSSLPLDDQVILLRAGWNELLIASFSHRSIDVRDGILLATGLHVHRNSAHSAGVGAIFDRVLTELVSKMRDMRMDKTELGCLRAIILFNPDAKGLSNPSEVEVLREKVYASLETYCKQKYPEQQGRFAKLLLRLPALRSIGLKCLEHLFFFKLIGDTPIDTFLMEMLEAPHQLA

[2] = target: T2, Retinoic acid receptor RXR-gamma (Homo sapiens, UniProt P48443); test: Transcriptional activity was evaluated in CV-1 cells transfected with expression vector for Retinoic acid receptor RXR-gamma
T2 sequence (P48443 whole entry): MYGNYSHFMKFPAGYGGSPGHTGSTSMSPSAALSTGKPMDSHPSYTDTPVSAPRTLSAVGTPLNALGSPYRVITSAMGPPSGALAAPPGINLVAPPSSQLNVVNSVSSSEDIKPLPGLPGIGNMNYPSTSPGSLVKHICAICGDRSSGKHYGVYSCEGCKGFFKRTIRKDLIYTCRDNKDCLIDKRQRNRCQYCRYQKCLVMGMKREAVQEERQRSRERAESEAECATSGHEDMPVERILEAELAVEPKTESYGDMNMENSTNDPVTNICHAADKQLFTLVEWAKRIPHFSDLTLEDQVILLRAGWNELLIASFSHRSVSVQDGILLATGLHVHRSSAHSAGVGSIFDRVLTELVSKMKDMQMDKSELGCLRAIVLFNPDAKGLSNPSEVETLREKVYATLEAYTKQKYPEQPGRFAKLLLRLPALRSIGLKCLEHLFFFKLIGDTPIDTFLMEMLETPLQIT

[3] = target: T3, Retinoic acid receptor RXR-alpha (Homo sapiens, UniProt P19793); test: Transcriptional activity was evaluated in CV-1 cells transfected with expression vector for Retinoic acid receptor RXR-alpha
T3 sequence (P19793 whole entry): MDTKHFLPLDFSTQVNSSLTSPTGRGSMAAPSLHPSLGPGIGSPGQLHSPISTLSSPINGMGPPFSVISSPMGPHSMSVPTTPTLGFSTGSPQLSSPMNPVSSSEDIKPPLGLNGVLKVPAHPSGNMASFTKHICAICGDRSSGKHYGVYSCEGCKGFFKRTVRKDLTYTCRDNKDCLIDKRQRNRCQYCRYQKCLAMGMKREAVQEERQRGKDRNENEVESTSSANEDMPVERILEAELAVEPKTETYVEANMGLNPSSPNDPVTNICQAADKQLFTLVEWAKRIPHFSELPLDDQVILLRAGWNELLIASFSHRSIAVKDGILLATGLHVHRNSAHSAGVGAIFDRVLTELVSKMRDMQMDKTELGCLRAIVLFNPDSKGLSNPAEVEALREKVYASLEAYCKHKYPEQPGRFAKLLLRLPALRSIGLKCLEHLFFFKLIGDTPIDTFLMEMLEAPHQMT

[4] = target: T1, Retinoic acid receptor RXR-beta; test: Binding affinity towards recombinantly expressed Retinoic acid receptor RXR-beta in baculoviral system, by using 5 nM [3H]targretin in a competitive binding assay

EC50 [1]: 165 nM
EC50 [2]: 34 nM
EC50 [3]: 46 nM
Ki [4]: 120 nM
SMILES: CCO/N=C(/c1ccc(C(=O)O)cc1)c1cc2c(cc1C)C(C)(C)CCC2(C)C
